Experimental data as given in patent US11786519B2, “Apoptosis-inducing agents for the treatment of cancer and immune and autoimmune diseases” (AbbVie Inc., priority 2011, dated 2023).

target: Bcl-xL (Homo sapiens, UniProt Q07817); assay: TR-FRET binding assay, competition with F-Bak for Bcl-xL; details: competition with F-Bak probe, GST-Bcl-xL
Description: Determination of the utility of compounds having Formula (I) as binders to and inhibitors of anti-apoptotic Bcl-xL proteins was performed using the Time Resolved-Fluorescence Resonance Energy Transfer (TR-FRET) Assay. Tb-anti-GST antibody was purchased from Invitrogen (Catalog No. PV4216).
The measurement of competition of compounds of the invention with F-Bak for a Bcl-2 family protein (Bcl-xL) binding site using a Time Resolved Fluorescence Resonance Energy Transfer (TR-FRET) binding assay:
Test compounds were serially diluted in DMSO starting at 50 µM (2× starting concentration; 10% DMSO) and 10 μL transferred into a 384-well plate.
The samples are then mixed on a shaker for 1 minute then incubated for an additional 2 hours at room temperature. For each assay plate, a probe/antibody and protein/antibody/probe mixture were included as a negative and a positive control, respectively. Fluorescence was measured on the ENVISION plate reader (Perkin Elmer) using a 340/35 nm excitation filter and 520/525 (F-Bak) and 495/510 nm ([…]) emission filters. Dissociation constants (Ki) were determined using Wang's equation (Wang, Z. X. An exact mathematical expression for describing competitive binding of two different ligands to a protein molecule. FEBS Lett. 1995 360:111-114). The TR-FRET assay can be performed in the presence of varying concentrations of human serum (HS) or fetal bovine serum (FBS).

Bcl-xL, sequence (Q07817 whole entry): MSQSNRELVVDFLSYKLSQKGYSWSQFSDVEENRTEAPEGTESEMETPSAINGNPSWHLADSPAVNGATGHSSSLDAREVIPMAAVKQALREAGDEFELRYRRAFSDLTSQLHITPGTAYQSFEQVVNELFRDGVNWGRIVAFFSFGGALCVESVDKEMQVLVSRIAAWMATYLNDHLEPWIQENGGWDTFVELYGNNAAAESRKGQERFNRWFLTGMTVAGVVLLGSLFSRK

**Q.** For `CC(C)OC12CC3CC(CC(Cn4cc(-c5ccc(N6CCc7cccc(C(=O)Nc8nc9ccccc9s8)c7C6)nc5C(=O)O)cn4)(C3)C1)C2` [Example 12, 6-[8-(1,3-benzothiazol-2-ylcarbamoyl)-3,4-dihydroisoquinolin-2(1H)-yl]-3-(1-{[3-(propan-2-yloxy)tricyclo[3.3.1.1^3,7]dec-1-yl]methyl}-1H-pyrazol-4-yl)pyridine-2-carboxylic acid], which Ki is on record?
**A.** < 0.1 nM

**Q.** How did the Ki turn out when `O=C(Nc1nc2ccccc2s1)c1cccc2c1CN(c1ccc(-c3cnn(CC45CC6CC(CC(O)(C6)C4)C5)c3)c(C(=O)O)n1)CC2` [Example 6, 6-[8-(1,3-benzothiazol-2-ylcarbamoyl)-3,4-dihydroisoquinolin-2(1H)-yl]-3-(1-{[3-hydroxytricyclo[3.3.1.1^3,7]dec-1-yl]methyl}-1H-pyrazol-4-yl)pyridine-2-carboxylic acid] was run?
**A.** < 0.1 nM

**Q.** For `COC12CC3CC(CC(Cn4c(C#N)cc(-c5ccc(N6CCc7cccc(C(=O)Nc8nc9ccccc9s8)c7C6)nc5C(=O)O)c4C)(C3)C1)C2` [Example 58, 6-[8-(1,3-benzothiazol-2-ylcarbamoyl)-3,4-dihydroisoquinolin-2(1H)-yl]-3-(5-cyano-1-{[3-methoxytricyclo[3.3.1.1^3,7]dec-1-yl]methyl}-2-methyl-1H-pyrrol-3-yl)pyridine-2-carboxylic acid], which Ki is on record?
**A.** < 0.1 nM

**Q.** How did the Ki turn out when `Cc1c(-c2ccc(N3CCc4cccc(C(=O)Nc5nc6ccccc6s5)c4C3)nc2C(=O)O)cnn1CC12CC3CC(C1)CC(S(C)(=O)=O)(C3)C2` [Example 81, 6-[8-(1,3-benzothiazol-2-ylcarbamoyl)-3,4-dihydroisoquinolin-2(1H)-yl]-3-(5-methyl-1-{[3-(methylsulfonyl)tricyclo[3.3.1.1^3,7]dec-1-yl]methyl}-1H-pyrazol-4-yl)pyridine-2-carboxylic acid] was run?
**A.** < 0.1 nM

**Q.** For `Cc1c(NC(=O)C23CC4CC(CC(C4)C2)C3)cccc1-c1ccc(N2CCc3cccc(C(=O)Nc4nc5ccccc5s4)c3C2)nc1C(=O)O` [Example 50, 6-[8-(1,3-benzothiazol-2-ylcarbamoyl)-3,4-dihydroisoquinolin-2(1H)-yl]-3-(2-methyl-3-{[tricyclo[3.3.1.1^3,7]dec-1-ylcarbonyl]amino}phenyl)pyridine-2-carboxylic acid], which Ki is on record?
**A.** 9 nM

**Q.** With `Cc1c(-c2ccc(N3CCc4cccc(C(=O)Nc5cn6ccncc6n5)c4C3)nc2C(=O)O)cnn1CC12CC3CC(CC(C3)C1)C2` [Example 73, 6-[8-(imidazo[1,2-a]pyrazin-2-ylcarbamoyl)-3,4-dihydroisoquinolin-2(1H)-yl]-3-[5-methyl-1-(tricyclo[3.3.1.1^3,7]dec-1-ylmethyl)-1H-pyrazol-4-yl]pyridine-2-carboxylic acid] as the compound, how does the Ki read?
**A.** < 0.1 nM

**Q.** Which Ki does the source give for `Cc1c(-c2ccc(N3CCc4cccc(C(=O)Nc5nc6ccccc6s5)c4C3)nc2C(=O)O)ccnc1S(=O)(=O)C12CC3CC(CC(C3)C1)C2` [Example 70, 6-[8-(1,3-benzothiazol-2-ylcarbamoyl)-3,4-dihydroisoquinolin-2(1H)-yl]-3′-methyl-2′-(tricyclo[3.3.1.1^3,7]dec-1-ylsulfonyl)-3,4′-bipyridine-2-carboxylic acid] here?
**A.** < 0.1 nM

**Q.** Which Ki does the source give for `Cc1c(-c2ccc(N3CCc4cccc(C(=O)Nc5nc6ccccc6s5)c4C3)nc2C(=O)O)cccc1N(C)CC12CC3CC(CC(C3)C1)C2` [Example 55, 6-[8-(1,3-benzothiazol-2-ylcarbamoyl)-3,4-dihydroisoquinolin-2(1H)-yl]-3-(2-methyl-3-{methyl[tricyclo[3.3.1.1^3,7]dec-1-ylmethyl]amino}phenyl)pyridine-2-carboxylic acid] here?
**A.** 0.4 nM

**Q.** Which Ki does the source give for `Cc1c(-c2ccc(N3CCc4cccc(C(=O)Nc5nc6ccccc6s5)c4C3)nc2C(=O)O)cc(C#N)n1CC12CC3CC(CC(C)(C3)O1)C2` [Example 72, 6-[8-(1,3-benzothiazol-2-ylcarbamoyl)-3,4-dihydroisoquinolin-2(1H)-yl]-3-{5-cyano-2-methyl-1-[(3-methyl-2-oxatricyclo[3.3.1.1^3,7]dec-1-yl)methyl]-1H-pyrrol-3-yl}pyridine-2-carboxylic acid] here?
**A.** < 0.1 nM

**Q.** `O=C(Nc1nc2ccccc2s1)c1cccc2c1CN(c1ccc(-c3cnn(CC4CCC5(CCC5)CC4)c3)c(C(=O)O)n1)CC2` [Example 4, 6-[8-(1,3-benzothiazol-2-ylcarbamoyl)-3,4-dihydroisoquinolin-2(1H)-yl]-3-[1-(spiro[3.5]non-7-ylmethyl)-1H-pyrazol-4-yl]pyridine-2-carboxylic acid] was tested. Which Ki did it give?
**A.** 0.5 nM

**Q.** `Cc1c(-c2ccc(N3CCc4cccc(C(=O)Nc5nc6ccccc6s5)c4C3)nc2C(=O)O)ccnc1N(C)C1CCCCCCC1` [Example 61, 6-[8-(1,3-benzothiazol-2-ylcarbamoyl)-3,4-dihydroisoquinolin-2(1H)-yl]-2′-[cyclooctyl(methyl)amino]-3′-methyl-3,4′-bipyridine-2-carboxylic acid] was tested. Which Ki did it give?
**A.** < 0.1 nM

**Q.** For `Cc1c(-c2ccc(N3CCc4cccc(C(=O)Nc5nc6ncccc6s5)c4C3)nc2C(=O)O)cnn1CC12CC3CC(CC(C3)C1)C2` [Example 30, 3-[5-methyl-1-(tricyclo[3.3.1.1^3,7]dec-1-ylmethyl)-1H-pyrazol-4-yl]-6-[8-([1,3]thiazolo[4,5-b]pyridin-2-ylcarbamoyl)-3,4-dihydroisoquinolin-2(1H)-yl]pyridine-2-carboxylic acid], which Ki is on record?
**A.** < 0.1 nM

**Q.** How did the Ki turn out when `N#Cc1c(-c2ccc(N3CCc4cccc(C(=O)Nc5nc6ccccc6s5)c4C3)nc2C(=O)O)cccc1S(=O)(=O)C12CC3CC(CC(C3)C1)C2` [Example 60, 6-[8-(1,3-benzothiazol-2-ylcarbamoyl)-3,4-dihydroisoquinolin-2(1H)-yl]-3-[2-cyano-3-(tricyclo[3.3.1.1^3,7]dec-1-ylsulfonyl)phenyl]pyridine-2-carboxylic acid] was run?
**A.** < 0.1 nM

**Q.** Which Ki does the source give for `N#Cc1c(NC23CC4CC(CC(C4)C2)C3)cccc1-c1ccc(N2CCc3cccc(C(=O)Nc4nc5ccccc5s4)c3C2)nc1C(=O)O` [Example 47, 6-[8-(1,3-benzothiazol-2-ylcarbamoyl)-3,4-dihydroisoquinolin-2(1H)-yl]-3-{2-cyano-3-[tricyclo[3.3.1.1^3,7]dec-1-ylamino]phenyl}pyridine-2-carboxylic acid] here?
**A.** 0.2 nM

**Q.** With `O=C(Nc1nc2ccccc2s1)c1cccc2c1CN(c1ccc(-c3cnn(CC45CC6CC(C4)CC(N4CCOCC4)(C6)C5)c3)c(C(=O)O)n1)CC2` [Example 15, 6-[8-(1,3-benzothiazol-2-ylcarbamoyl)-3,4-dihydroisoquinolin-2(1H)-yl]-3-(1-{[3-(morpholin-4-yl)tricyclo[3.3.1.1^3,7]dec-1-yl]methyl}-1H-pyrazol-4-yl)pyridine-2-carboxylic acid] as the compound, how does the Ki read?
**A.** < 0.1 nM

**Q.** Which Ki does the source give for `Cc1c(-c2ccc(N3CCc4cccc(C(=O)Nc5nc6ccccc6s5)c4C3)nc2C(=O)O)cnn1CC1C2CC3CC(C2)CC1C3` (stereo not shown) [Example 62, 6-[8-(1,3-benzothiazol-2-ylcarbamoyl)-3,4-dihydroisoquinolin-2(1H)-yl]-3-[5-methyl-1-(tricyclo[3.3.1.1^3,7]dec-2-ylmethyl)-1H-pyrazol-4-yl]pyridine-2-carboxylic acid] here?
**A.** < 0.1 nM

**Q.** With `Cc1c(C(=O)N(C)C2C3CC4CC(C3)CC2C4)cccc1-c1ccc(N2CCc3cccc(C(=O)Nc4nc5ccccc5s4)c3C2)nc1C(=O)O` (stereo not shown) [Example 64] as the compound, how does the Ki read?
**A.** < 0.1 nM

**Q.** How did the Ki turn out when `Cc1c(-c2ccc(N3CCc4cccc(C(=O)Nc5nc6ccccc6s5)c4C3)nc2C(=O)O)cccc1S(=O)(=O)N(C)C1C2CC3CC(C2)CC1C3` (stereo not shown) [Example 69, 6-[8-(1,3-benzothiazol-2-ylcarbamoyl)-3,4-dihydroisoquinolin-2(1H)-yl]-3-(2-methyl-3-{methyl[tricyclo[3.3.1.1^3,7]dec-2-yl]sulfamoyl}phenyl)pyridine-2-carboxylic acid] was run?
**A.** 0.6 nM

**Q.** How did the Ki turn out when `Cc1c(OCC23CC4CC(CC(C4)C2)C3)cccc1-c1ccc(N2CCc3cccc(C(=O)Nc4nc5ccccc5s4)c3C2)nc1C(=O)O` [Example 21, 6-[8-(1,3-benzothiazol-2-ylcarbamoyl)-3,4-dihydroisoquinolin-2(1H)-yl]-3-{2-methyl-3-[tricyclo[3.3.1.1^3,7]dec-1-ylmethoxy]phenyl}pyridine-2-carboxylic acid] was run?
**A.** 0.6 nM

**Q.** How did the Ki turn out when `Cc1c(-c2ccc(N3CCc4cccc(C(=O)Nc5nc6ccccc6s5)c4C3)nc2C(=O)O)cccc1N(C)C(=O)C12CC3CC(CC(C3)O1)C2` [Example 68, 6-[8-(1,3-benzothiazol-2-ylcarbamoyl)-3,4-dihydroisoquinolin-2(1H)-yl]-3-{2-methyl-3-[methyl(2-oxatricyclo[3.3.1.1^3,7]dec-1-ylcarbonyl)amino]phenyl}pyridine-2-carboxylic acid] was run?
**A.** < 0.1 nM

**Q.** `O=C(Nc1nc2ccccc2s1)c1cccc2c1CN(c1ccc(-c3cnn(CC45CC6CC(CC(Br)(C6)C4)C5)c3)c(C(=O)O)n1)CC2` [Example 11, 6-[8-(1,3-benzothiazol-2-ylcarbamoyl)-3,4-dihydroisoquinolin-2(1H)-yl]-3-(1-{[3-bromotricyclo[3.3.1.1^3,7]dec-1-yl]methyl}-1H-pyrazol-4-yl)pyridine-2-carboxylic acid] was tested. Which Ki did it give?
**A.** < 0.1 nM

**Q.** How did the Ki turn out when `O=C(Nc1nc2ccccc2s1)c1cccc2c1CN(c1ccc(-c3ccc(=O)n(CC45CC6CC(CC(C6)C4)C5)c3)c(C(=O)O)n1)CC2` [Example 85, 6-[8-(1,3-benzothiazol-2-ylcarbamoyl)-3,4-dihydroisoquinolin-2(1H)-yl]-6′-oxo-1′-(tricyclo[3.3.1.1^3,7]dec-1-ylmethyl)-1′,6′-dihydro-3,3′-bipyridine-2-carboxylic acid] was run?
**A.** < 0.1 nM
